What all share (test): DTP human tumour cell line panel, 48 h
For test [1], the system named is KM12 colon.
Test [2] relates to SF-268 CNS.
The subject of test [3] is OVCAR-8 ovarian.
Test [4] deals with HL-60(TB) leukemia.
The test system of test [5] is COLO 205 colon.
In test [6] the test system is RXF 393 renal.
Test [7] has as its system UACC-257 melanoma.
Test [8] has as its system ACHN renal.
Test [9] relates to NCI/ADR-RES ovarian.
Test [10] deals with SW-620 colon.
In test [11] the test system is UO-31 renal.
Test [12] concerns K-562 leukemia.
For test [13], the system named is CCRF-CEM leukemia.
For test [14], the system named is SF-539 CNS.
Test [15] concerns UACC-62 melanoma.
Test [16] has as its system MOLT-4 leukemia.

SMILES strings stand for the structures.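 Five concentrations, 48 hours, 96-well plates. TGI: total growth inhibition.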 Some results are limits rather than exact numbers.

The term TGI denotes the concentration at which net growth stops. A lower TGI goes with greater sensitivity of the cells.

As to `COC(=O)c1ccccc1/C=C1\Cc2c(C)c3c(c(C)c2C1=O)CCC3`, the TGI in [1], in test [2], in test [3], in test [4], in [5] and in [6] was over 100 µM each time. Further, the TGI in test [7], in test [8], in [9], in test [10], in test [11] and in test [12] was over 100 µM throughout. Besides, the TGI in test [13], in [14], in [15] and in test [16] was over 100 µM in each case.
Consider `C[C@]12CCC(O)CC1=CC[C@@H]1[C@@H]2CC[C@]2(C)C(O)[C@H](n3ccnc3)C[C@@H]12` (stereo partly specified), for which the TGI in test [1] is over 100 µM; in test [2] it was over 100 µM; in test [3], over 100 µM; in test [4], 38.3 µM; in test [5], over 100 µM; in test [6], over 100 µM. Also, the TGI in test [7], in test [8], in test [9], in [10], in [11] and in test [12] was over 100 µM each time. Moreover, the TGI in [13] is over 100 µM; in [14], over 100 µM; in [15], over 100 µM; in test [16], 80.1 µM.
In the case of `C[N+]12CCCCC1C(COc1cccc3cccnc13)CCC2` (stereo unspecified), the TGI in test [1], in test [2], in test [3], in test [4], in [5] and in [6] was over 100 µM throughout. In addition, the TGI in test [7], in [8], in [9], in [10], in test [11] and in test [12] was over 100 µM each time. Moreover, the TGI in [13], in test [14], in test [15] and in test [16] was over 100 µM throughout.
On to `CC(C)CCCC(C)[C@H]1CC[C@H]2n3c(nnc3-c3ccccc3)CCC[C@]12C` (stereo partly specified), for which the TGI in test [1] was over 100 µM; in [2], 28.2 µM; in test [3], 67.2 µM; in test [4] it was 16.2 µM; in test [5] it was 14.8 µM; in test [6], 27 µM. The TGI in [7] stood at 26.9 µM; in test [9] it was 24 µM; in test [10] it was 47.5 µM; in [11] it was 23.2 µM; in test [12], 13.6 µM; in test [13], 24.6 µM. Besides, the TGI in [14] is 25.1 µM; in test [15], 27.3 µM; in test [16], 13.2 µM.
With `CC(=O)NC1C(OCc2ccccc2)OC(CO)C(O)C1OC(C)C(=O)NC(C(=O)NC(CCC(=O)NCCCC(=O)Nc1ccc2c(c1)CN1C(=O)c3ccccc3C1=N2)C(N)=O)C(C)C` (stereo unspecified), the TGI in test [1], in test [2], in [4], in [5], in test [6] and in [7] was over 100 µM each time. The TGI in test [8], in [9], in test [10], in test [11], in test [12] and in test [13] was over 100 µM each time. The TGI in test [14], in [15] and in test [16] was over 100 µM throughout.
Take `OCC1OC(NC(=S)NCCC(F)(F)C(F)(F)C(F)(F)C(F)(F)C(F)(F)C(F)(F)F)C(O)C(O)C1O` (stereo unspecified): the TGI in [1], in test [2], in test [4], in [5], in test [6] and in test [7] was over 100 µM throughout. For the same compound, the TGI in test [8], in test [9], in test [10], in [11], in [12] and in test [13] was over 100 µM throughout. In addition, the TGI in test [14], in test [15] and in test [16] was over 100 µM throughout.
As to `COc1ccc(CC2Cc3ccccc3CCN2)cc1OC` (stereo unspecified), the TGI in test [1] is over 50 µM; in test [2], over 50 µM; in test [3], over 50 µM; in test [4], over 50 µM; in [5], 21.4 µM; in [6] it was over 50 µM. Moreover, the TGI in [7], in [9], in test [10], in test [11], in [12] and in test [13] was over 50 µM in each case. Moreover, the TGI in test [14], in test [15] and in test [16] was over 50 µM in each case.
Take `O=c1[nH]c2cccc([N+](=O)[O-])c2c(=O)n1-c1ccc(Cl)cc1`: the TGI in [1] stood at 34.4 µM; in test [2], 30.4 µM; in test [3] it was 29.4 µM; in test [4], 53.3 µM; in test [5] it was 16.6 µM; in test [6], 37.1 µM. The TGI stood at 29.6 µM in test [7]; 25.1 µM in [8]; 43.6 µM in test [9]; 27.1 µM in test [10]; 34.9 µM in [12]; 47.1 µM in [13]. For the same compound, the values for the TGI in [14], in test [15] and in test [16] were 26.2 µM, 23.1 µM and 43.2 µM, respectively.
Regarding `COC(=O)/C(C)=N/NC(=S)SC`, the TGI is over 100 µM in [1]; over 100 µM in test [2]; over 100 µM in [3]; 28.5 µM in [4]; 97 µM in test [6]; over 100 µM in test [7]. Also, the TGI in test [8] was over 100 µM; in test [9], over 100 µM; in test [10], over 100 µM; in test [11], over 100 µM; in test [12], over 100 µM; in test [13], 11 µM. Further, the TGI in test [14] and in test [16] was over 100 µM throughout.
As to `C=CC(C)(C)n1cc(C2=C3OC(=O)C(c4cn(C(C)(C)C=C)c5ccccc45)=C3OC2=O)c2ccccc21`, the TGI in test [1], in [2], in test [3], in test [4], in [5] and in [6] was over 100 µM throughout. Further, the TGI in test [7], in test [8], in test [9], in test [10], in [11] and in [12] was over 100 µM each time. In addition, the TGI in test [13], in test [14] and in test [16] was over 100 µM each time.
`Cc1cc(S(=O)(=O)Nc2nc(N)nc(N3N=CCC3C)n2)c(SCC(=O)O)cc1Cl` (stereo unspecified): the TGI in [1], in test [2], in test [3], in [4], in test [5] and in test [6] was over 10 µM in each case. Also, the TGI in test [7], in test [8], in test [9], in test [10], in test [12] and in test [13] was over 10 µM each time. Moreover, the TGI in test [14], in test [15] and in test [16] was over 10 µM in each case.
As for `NC(CSS(=O)(=O)O)=NC1CC2CCC1C2` (stereo unspecified), the TGI in [1], in test [2], in test [3], in [4], in [5] and in [6] was over 100 µM each time. Moreover, the TGI in [7], in test [8], in [9], in test [10], in test [12] and in test [13] was over 100 µM each time. In addition, the TGI in test [14], in test [15] and in test [16] was over 100 µM each time.
As to `COC(=O)C1=CC2C(=O)c3ccccc3C1(c1ccccc1)N2C1CCCCC1` (stereo unspecified), the TGI was 32.1 µM in test [1]; over 100 µM in test [2]; over 100 µM in test [3]; over 100 µM in [4]; 26.2 µM in test [5]; 24.6 µM in test [6]. The TGI was 39 µM in test [7]; over 100 µM in test [8]; over 100 µM in [9]; over 100 µM in test [10]; over 100 µM in test [11]; over 100 µM in test [12]. Further, the figures for the TGI in test [13], in [14] and in test [16] were over 100 µM, 41.5 µM and over 100 µM, respectively.
`CC(C)(C)c1cc(S(=O)(=O)O)c2oc(-c3ccccc3)cc(=O)c2c1`: the TGI in [1], in test [2], in [3], in [4], in test [5] and in [6] was over 100 µM throughout. In addition, the TGI in test [7], in test [8], in [9], in test [10], in test [11] and in [12] was over 100 µM throughout. Also, the TGI in test [13], in [14] and in [16] was over 100 µM each time.
On to `CN1CCCC2C(c3ccccc3)C(C3=NCCCC3)C(c3ccccc3)CC21` (stereo unspecified), for which the TGI in [1] was over 100 µM; in [2] it was over 100 µM; in [3], over 100 µM; in test [4] it was over 100 µM; in test [5], 66.1 µM; in [6] it was over 100 µM. Moreover, the TGI in test [7] is 35 µM; in [8], over 100 µM; in test [9], over 100 µM; in test [10] it was over 100 µM; in test [12], 37.6 µM; in test [13], over 100 µM. Further, the TGI in test [14] was 31.3 µM; in test [15], 32.4 µM; in test [16], over 100 µM.
On to `NCc1ccc(-c2ccc(CN)s2)s1`, for which the TGI in test [1], in test [3], in [4], in [5], in test [6] and in [7] was over 100 µM throughout. In addition, the TGI in [8] is over 100 µM; in [9] it was 83.6 µM; in test [10], over 100 µM; in test [11] it was over 100 µM; in test [12], over 100 µM; in test [13] it was over 100 µM. For the same compound, the TGI in test [14], in test [15] and in test [16] was over 100 µM in each case.
As to `O=C1c2ccccc2C(=O)C2NC(CCCCCSSCCCCCC3=NC4C(=O)c5ccccc5C(=O)C4N3)=NC12` (stereo unspecified), the TGI in [1], in [2], in test [3], in [4], in test [6] and in test [7] was over 100 µM in each case. The TGI in [8], in test [9], in [10], in test [11], in test [12] and in [13] was over 100 µM throughout. The TGI in [14] and in [16] was over 100 µM in each case.
Turning to `COc1ccccc1C[C@@H]1OC2(C=CC(=O)CC2SC(=O)c2ccccc2)O[C@H]1Cc1ccccc1OC` (stereo partly specified), the TGI was 8.4 µM in [1]; 2.44 µM in test [2]; 5.64 µM in [4]; 3.16 µM in [5]; 0.501 µM in [6]; 3.02 µM in test [7]. Also, the TGI in test [8] was 3.5 µM; in test [9] it was 4.55 µM; in test [10] it was 1.35 µM; in test [11], 2.54 µM; in test [12], 27.3 µM; in test [13], 1.03 µM. The TGI in [14] came out at 3.08 µM; in test [15], 7 µM; in test [16] it was 19.5 µM.

Values taken from PubChem BioAssay (NCI).
